Entries after “also recorded” stand apart in the source; their conditions may differ.
Legend:
mouse vaginal epithelium = assay: Mitotic index in estrogen-stimulated vaginal epithelium of female mice; type: in vivo, Kunming mice; conditions: 1.0 mg/kg i.p. once a day, 3 days; percent of mitotic cells
Description: (§1) Materials: Meisoindigo was synthesized, purified and its structure characterized by Natrogen Therapeutics, Inc. The purity of the compound was 98.5% as described in the Examples above. A suspension of Meisoindigo was freshly prepared in 0.5% sodium methylcellulose and given orally for the animal tests described below. Other chemicals used in the following experiments were purchased from Sigma.
(§2) Pathogen-free female Kunming mice at 12 weeks of age with body weights from 22 to 25 grams were housed 5 per cage, and given, ad libitum, fresh tap water and commercial rodent pellets. Animal rooms were controlled at 24±2° C. with a relative humidity of 60±5% and a 12 hour light/dark cycle (07:00-19:00 hr).
Anti-mitotic Effects of Meisoindigo on Mouse Vaginal Epithelium: Sixty Kunming female mice were randomly divided into 5 groups, 20 in one control group, and 10 in 4 drug-tested groups. All mice were given estrogen at a dose of 0.2 mg/animal for 3 days to allow vaginal epithelial cells to develop under the stimulation of estrogen hormone. Meisoindigo was freshly prepared as a suspension in 0.5% of sodium methylcellulose. The drug was given orally at doses of 50, 100, and 200 mg/kg, respectively, once a day for 3 days. Methotrexate (MTX) was used as a positive control at a dose of 1 mg/kg, i.p. once a day for the same period of time. […] The mitotic index (percent of mitotic cells) was calculated.

[1] = tested on: scale epithelial cells of mouse-tails; assay: Mouse-tail model: granular layer formation in scale epithelial cells; type: in vivo, Kunming mice; conditions: 1.0 mg/kg i.p. once every 2 days, 13 days
Description: as §1, §2
Effect of Meisoindigo on Epidermal Cell Differentiation in Mouse Tails: Sixty female Kunming mice were randomly divided into 5 groups, 20 in one control group, and 10 in 4 drug-tested groups. Meisoindigo was freshly prepared as a suspension in 0.5% of sodium methylcellulose. The drug was given orally at doses of 50, 100, and 200 mg/kg, respectively, once a day for 13 days. Methotrexate (MTX) was used as a positive control at a dose of 1 mg/kg, i.p. once every 2 days, for the same period of time. The same volume and vehicle for Meisoindigo suspension were used as a negative control. […] Slides were prepared for histological examination as originally described by Bosman et. al., (106). The slides were prepared by cutting the tails into longitudinal sections, and Hematoxylin and Eosin (H&E) stained. The slides were then examined with a light microscope to evaluate the degree of orthokeratosis (OK) and epidermal hyperplasia. The former was done by measuring the horizontal length of the fully developed granular layer stratum granulosum within an individual scale in relation to its total length. Drug activity was defined by the increase of the positive scale cells containing granular layer stratum granulosum between two folliculus pili.

cyclin D1 = assay: Cyclin D1 levels in THP-1 cells; type: cell-based, human; conditions: 31.25 and 62.5 nM, 24 h; data not shown
[2] = molecular target: T1, glycogen synthase kinase-3β (GSK-3β) (Homo sapiens, UniProt P49841); assay: Effect on glycogen synthase kinase-3β in cells; type: cell-based; conditions: as high as 50 μM; data not shown
T1 construct: endogenous in cells

IL-10 = IL-10 secretion (ELISA) in THP-1 cells; type: cell-based, human
Description: (§5) Viability of cells was examined under microscope after trypan blue staining.
Viability of cells was examined by trypan blue exception assay.

IL-6 = IL-6 secretion (ELISA) in LPS-stimulated THP-1 cells; type: cell-based, human; conditions: as low as 31.25 nM (31.25 and 62.5 nM in FIG. 6), 24 h
Protocol: as §5
Standard IL-6 protein was used to establish a standard curve for the calculation of IL-6 in the medium secreted by the cells (LPS-stimulated or non-stimulated cells in the presence or absence of Meisoindigo).
(§6) 1) Effects of Meisoindigo and NATURA on the expression/secretion of cytokines IL-1β, IL-6, IL-10: The human monocytic THP-1 cells grown exponentially were stimulated with or without 1 μM of lipopolysaccharide (LPS, Sigma), and exposed for 24 hours to different concentrations of Meisoindigo and NATURA (from 31.25 nM and 62.5 nM), respectively. Viability of cells was examined by trypan blue exception assay.

cdk4/6 = assay: Cyclin dependent kinase activity in THP-1 cells (immunoprecipitation, histone H1 phosphorylation); type: cell-based, human; conditions: 31.25 and 62.5 nM, 24 h
Protocol: (§3) 2) Effects of Meisoindigo and/or NATURA on activity of cyclin dependent kinases (CDK) in THP-1 cells (99): THP-1 cells grown exponentially were exposed to […] of Meisoindigo or NATURA for 24 hr, respectively.
(§4) The cells were harvested, washed, and total proteins extracted as described previously (100). One hundred μg of the proteins were immuno-precipitated using antibodies against either cdk2, cdk4/6 or cyclin D1 overnight at 4° C. in the presence of a cocktail of protease inhibitors. The immuno-precipitates were washed 4 times with protein extraction buffer and once with kinase assay buffer, and reacted with […] histone H1 in the presence of [γ-^32P]-ATP (10 μCi/10 μM). The phosphorylated histone H1 (represent cdk activity) was measured by scintillation counting or by SDS-polyacrylaimde gel electrophoresis (101, 102).

CDK2 = molecular target: T2, CDK2 (Homo sapiens, UniProt P24941); assay: as above; type: cell-based; conditions: 24 h
T2 construct: endogenous in cells; host or cells: THP-1
Protocol: as §3, §4

IL-1β = IL-1β secretion (ELISA) in LPS-stimulated THP-1 cells; type: cell-based, human; conditions: as low as 31.25 nM (31.25 and 62.5 nM in FIG. 6), 24 h
Protocol: It was prepared in a solution of dimethyl sulfoxide (DMSO), and stored under −20° C. for the experiments in vitro. Human monocytic cell line, THP-1 (90), was purchased from ATCC. The cells were maintained according to the supplier's instructions. Approximately 1×10^5 cells/ml were cultured at 37° C., 5% CO2 for 24 hours in Modified RPMI-1640 Medium (Invitrogen) supplemented with 10% FBS.
Viability of cells was examined under microscope after trypan blue staining. Protein levels of IL-1β secreted into the culture media by the cells were then measured by ELISA and calculated from its standard curve using an assay Kit from R&D Systems according to instructions provided by the supplier.
Statistical Analysis: All data were expressed as a mean±SD. Statistical significance of any difference between the control (LPS) and experimental groups was determined by the Student's t-test. P values between the 2 groups must be at least smaller than 0.05 to be considered statistically significant.
as §6

T1 sequence (P49841 whole entry): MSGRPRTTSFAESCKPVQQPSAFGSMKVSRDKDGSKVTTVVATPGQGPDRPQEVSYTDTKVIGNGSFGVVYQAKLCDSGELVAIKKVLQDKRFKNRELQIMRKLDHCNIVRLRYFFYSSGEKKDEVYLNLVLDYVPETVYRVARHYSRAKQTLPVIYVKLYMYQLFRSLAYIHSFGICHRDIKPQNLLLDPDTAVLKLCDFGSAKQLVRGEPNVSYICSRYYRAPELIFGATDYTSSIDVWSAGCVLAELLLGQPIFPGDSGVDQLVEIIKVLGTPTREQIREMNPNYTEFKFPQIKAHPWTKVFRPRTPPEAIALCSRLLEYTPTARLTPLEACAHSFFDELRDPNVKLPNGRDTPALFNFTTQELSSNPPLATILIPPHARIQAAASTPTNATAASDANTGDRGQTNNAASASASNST

activity on GSK-3β [2] | partial inhibition of CDK activity (CDK2; 1.5 μM, FIG. 6B) [%] | Structure (SMILES) | Mitotic Index (X ± SD) (mouse vaginal epithelium) | Granulous Scales (X ± SD) [1] | effect on levels of cyclin D1 (cyclin D1) | effect on IL-10 production (IL-10; 31.25 and 62.5 nM, 24 h) | elevation of LPS-suppressed IL-10 (IL-10; similar concentrations (as low as 31.25 nM), FIG. 6A) [fold] | effect on IL-6 production/secretion (IL-6) | inhibition of cyclin dependent kinase 4 and 6 activity (cdk4/6) | inhibition of CDK2 activity (CDK2; 31.25 and 62.50 nM) | effect on IL-1β production (IL-1β)
– | – | CN(Cc1cnc2nc(N)nc(N)c2n1)c1ccc(C(=O)N[C@@H](CCC(=O)O)C(=O)O)cc1 [MTX, Methotrexate, reference compound] | 14.76±4.29 | 17.22 ± 4.92 | – | – | – | – | – | – | –
no activity was observed | 23 | CC(=O)OC1COC(N2C(=O)/C(=C3/C(=O)Nc4ccccc43)c3ccccc32)C(OC(C)=O)C1OC(C)=O (centres unmarked) [NATURA] | – | – | failed to inhibit | promoted production | ~2 | significantly inhibit | failed to inhibit | failed to inhibit; also recorded: no inhibitory effect | significantly inhibit
